Data published in ChEMBL document CHEMBL1201862, “PubChem BioAssay data set” (2004).
Calls of active or inactive are those of the source.

Tests used:
Trypsin = Trypsin (Sus scrofa, UniProt P00761); assay: trypsin protease activity blockade – biochemical, quenched peptide fluorescence, cherry-pick, selectivity assay for Rce1 protease inhibitor project, dose response (AID 488789)
Beta-lactamase [1] = target: T1, Beta-lactamase (Pseudomonas aeruginosa, UniProt Q79MP6); assay: inhibition of IMP-1 beta-lactamase activity – biochemical, epi-absorbance, selectivity assay for VIM-2 inhibitor project, dose response (AID 1920)
Beta-lactamase [2] = target: Beta-lactamase (Salmonella choleraesuis (strain SC-B67), UniProt Q5J463); assay: Epi-absorbance-based counterscreen for selective VIM-2 inhibitors: dose response biochemical high throughput screening assay to identify inhibitors of TEM-1 serine-beta-lactamase.
Beta-lactamase [3] = target: T1, Beta-lactamase; assay: […] counterscreen for selective VIM-2 inhibitors: dose response biochemical high throughput screening assay to identify inhibitors of IMP-1 metallo-beta-lactamase.
A549 = assay: viability loss in A549 cells – cell-based, plate reader, cherry-pick samples, cytotoxicity control, dose response (AID 687028); assay type: functional; conditions: Homo sapiens
[4] = cytotoxicity in HEK293 background cells – cell-based, dry powder, set 2, counter-screen for EBV LMP1 inhibitor project, dose response (AID 624374); assay type: functional
[5] = target: Potassium channel subfamily K member 3 (Homo sapiens, UniProt O14649); assay: inhibition of human KCNK3 channel flux – CHO cells, FluxOR thallium flux, SAR follow-up (AID 652212); assay type: functional
[6] = target: Potassium channel subfamily K member 9 (Homo sapiens, UniProt Q9NPC2); assay: KCNK9 flux blockade, concentration-response – cell-based, FluxOR thallium flux, selectivity assay for TASK1 inhibitor project, SAR follow-up (AID 652211); assay type: functional;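 further: potency is for inhibitors of the channel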
[7] = target: SWI/SNF-related matrix-associated actin-dependent regulator of chromatin subfamily A member 2 (Homo sapiens, UniProt P51531); assay: Luminescence-based cell-based high throughput dose response assay to identify activators of the function of SWI/SNF related, matrix associated, actin dependent regulator of chromatin, subfamily a, member 2 (SMARCA2, BRM).; assay type: functional
[8] = target: T2, Short transient receptor potential channel 4 (Mus musculus, UniProt Q9QUQ5); assay: block of DAMGO-driven TRPC4 calcium entry – cell-based, HEK293 TRPC4/mu-opioid, Fluo-4 calcium, dose response (AID 434942); assay type: functional;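 further: potency of inhibitors blocking the TRPC4 calcium response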
T2 sequence (Q9QUQ5 whole entry): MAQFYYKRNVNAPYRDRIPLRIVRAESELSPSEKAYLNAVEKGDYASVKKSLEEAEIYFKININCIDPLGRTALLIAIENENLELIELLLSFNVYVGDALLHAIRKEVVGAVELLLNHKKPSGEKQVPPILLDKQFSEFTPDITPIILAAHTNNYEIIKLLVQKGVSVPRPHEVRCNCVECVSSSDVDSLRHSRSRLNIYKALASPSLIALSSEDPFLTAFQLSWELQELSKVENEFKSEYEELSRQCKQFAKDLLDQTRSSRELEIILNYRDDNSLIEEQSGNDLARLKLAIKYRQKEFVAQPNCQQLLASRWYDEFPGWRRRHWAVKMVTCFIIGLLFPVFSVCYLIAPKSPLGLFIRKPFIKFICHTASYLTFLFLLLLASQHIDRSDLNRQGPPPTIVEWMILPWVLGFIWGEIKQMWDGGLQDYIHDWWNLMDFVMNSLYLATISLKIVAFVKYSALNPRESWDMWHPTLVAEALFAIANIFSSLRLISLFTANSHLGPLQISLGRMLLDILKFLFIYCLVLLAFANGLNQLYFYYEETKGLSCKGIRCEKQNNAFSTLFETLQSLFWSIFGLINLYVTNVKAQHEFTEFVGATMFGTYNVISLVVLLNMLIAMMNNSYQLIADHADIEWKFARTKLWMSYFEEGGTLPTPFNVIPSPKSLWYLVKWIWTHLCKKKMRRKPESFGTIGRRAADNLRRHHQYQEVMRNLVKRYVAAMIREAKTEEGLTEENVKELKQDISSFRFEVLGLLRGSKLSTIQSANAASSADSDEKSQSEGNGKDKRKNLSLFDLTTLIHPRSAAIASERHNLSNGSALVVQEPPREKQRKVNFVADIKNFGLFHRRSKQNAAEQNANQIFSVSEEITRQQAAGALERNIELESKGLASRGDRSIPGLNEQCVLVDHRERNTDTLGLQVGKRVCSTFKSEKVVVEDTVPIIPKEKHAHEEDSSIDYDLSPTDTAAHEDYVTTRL

[9] = Counterscreen for activators of the function of SWI/SNF related, matrix associated, actin dependent regulator of chromatin, subfamily a, member 2 (SMARCA2, BRM): Luminescence-based cell-based high throughput dose response assay to identify non-selective compounds using the VP16 reporter assay.; assay type: functional
[10] = target: T3, DNA repair protein RAD52 homolog (Homo sapiens, UniProt P43351); assay type: functional, biochemical
T3 sequence (P43351 whole entry): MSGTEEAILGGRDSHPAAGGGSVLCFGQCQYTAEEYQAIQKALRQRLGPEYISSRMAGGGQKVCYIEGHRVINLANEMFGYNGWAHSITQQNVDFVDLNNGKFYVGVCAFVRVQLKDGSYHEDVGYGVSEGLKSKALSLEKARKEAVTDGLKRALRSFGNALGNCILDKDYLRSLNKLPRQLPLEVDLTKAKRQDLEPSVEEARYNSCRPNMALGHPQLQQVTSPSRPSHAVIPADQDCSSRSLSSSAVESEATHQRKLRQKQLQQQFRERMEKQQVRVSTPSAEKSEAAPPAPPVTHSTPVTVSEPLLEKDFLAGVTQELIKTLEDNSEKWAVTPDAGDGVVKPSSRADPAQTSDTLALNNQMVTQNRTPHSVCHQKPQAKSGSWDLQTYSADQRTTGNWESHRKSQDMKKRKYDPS

T1 sequence (Q79MP6 whole entry): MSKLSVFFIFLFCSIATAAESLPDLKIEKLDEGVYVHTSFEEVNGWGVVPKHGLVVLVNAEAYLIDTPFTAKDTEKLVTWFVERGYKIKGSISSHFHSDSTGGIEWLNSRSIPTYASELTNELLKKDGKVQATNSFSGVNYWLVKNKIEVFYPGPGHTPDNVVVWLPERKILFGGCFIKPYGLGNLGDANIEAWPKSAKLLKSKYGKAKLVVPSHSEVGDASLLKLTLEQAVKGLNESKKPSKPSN
Sequence of Trypsin (P00761 whole entry): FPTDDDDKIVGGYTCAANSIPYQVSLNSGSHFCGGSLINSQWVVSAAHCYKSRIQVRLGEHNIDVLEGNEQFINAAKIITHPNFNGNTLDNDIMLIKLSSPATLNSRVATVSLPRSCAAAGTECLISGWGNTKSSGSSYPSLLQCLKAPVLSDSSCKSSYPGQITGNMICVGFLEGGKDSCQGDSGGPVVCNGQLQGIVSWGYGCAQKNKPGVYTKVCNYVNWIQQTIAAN
Sequence of Potassium channel subfamily K member 3 (O14649 whole entry): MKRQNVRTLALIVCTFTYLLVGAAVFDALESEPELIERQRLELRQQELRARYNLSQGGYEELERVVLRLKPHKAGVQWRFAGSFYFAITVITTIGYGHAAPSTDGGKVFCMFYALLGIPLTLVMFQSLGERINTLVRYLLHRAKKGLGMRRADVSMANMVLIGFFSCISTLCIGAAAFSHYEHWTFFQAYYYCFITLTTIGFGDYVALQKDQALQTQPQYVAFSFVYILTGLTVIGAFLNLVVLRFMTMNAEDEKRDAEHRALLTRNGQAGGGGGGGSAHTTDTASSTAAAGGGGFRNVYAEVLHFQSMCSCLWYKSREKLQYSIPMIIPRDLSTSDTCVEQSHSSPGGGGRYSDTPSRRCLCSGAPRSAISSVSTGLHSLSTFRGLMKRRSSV
Sequence of Potassium channel subfamily K member 9 (Q9NPC2 whole entry): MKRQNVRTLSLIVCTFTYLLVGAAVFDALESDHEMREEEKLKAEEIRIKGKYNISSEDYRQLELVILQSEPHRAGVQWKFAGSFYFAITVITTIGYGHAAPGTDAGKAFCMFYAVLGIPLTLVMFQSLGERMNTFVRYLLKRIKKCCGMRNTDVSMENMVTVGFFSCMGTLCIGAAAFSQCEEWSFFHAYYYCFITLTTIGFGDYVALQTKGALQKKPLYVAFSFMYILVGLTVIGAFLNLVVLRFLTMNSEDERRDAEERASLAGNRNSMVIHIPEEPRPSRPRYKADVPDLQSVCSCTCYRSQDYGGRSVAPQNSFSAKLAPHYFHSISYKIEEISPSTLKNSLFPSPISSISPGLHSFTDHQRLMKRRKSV
Sequence of SWI/SNF-related matrix-associated actin-dependent regulator of chromatin subfamily A member 2 (P51531 whole entry): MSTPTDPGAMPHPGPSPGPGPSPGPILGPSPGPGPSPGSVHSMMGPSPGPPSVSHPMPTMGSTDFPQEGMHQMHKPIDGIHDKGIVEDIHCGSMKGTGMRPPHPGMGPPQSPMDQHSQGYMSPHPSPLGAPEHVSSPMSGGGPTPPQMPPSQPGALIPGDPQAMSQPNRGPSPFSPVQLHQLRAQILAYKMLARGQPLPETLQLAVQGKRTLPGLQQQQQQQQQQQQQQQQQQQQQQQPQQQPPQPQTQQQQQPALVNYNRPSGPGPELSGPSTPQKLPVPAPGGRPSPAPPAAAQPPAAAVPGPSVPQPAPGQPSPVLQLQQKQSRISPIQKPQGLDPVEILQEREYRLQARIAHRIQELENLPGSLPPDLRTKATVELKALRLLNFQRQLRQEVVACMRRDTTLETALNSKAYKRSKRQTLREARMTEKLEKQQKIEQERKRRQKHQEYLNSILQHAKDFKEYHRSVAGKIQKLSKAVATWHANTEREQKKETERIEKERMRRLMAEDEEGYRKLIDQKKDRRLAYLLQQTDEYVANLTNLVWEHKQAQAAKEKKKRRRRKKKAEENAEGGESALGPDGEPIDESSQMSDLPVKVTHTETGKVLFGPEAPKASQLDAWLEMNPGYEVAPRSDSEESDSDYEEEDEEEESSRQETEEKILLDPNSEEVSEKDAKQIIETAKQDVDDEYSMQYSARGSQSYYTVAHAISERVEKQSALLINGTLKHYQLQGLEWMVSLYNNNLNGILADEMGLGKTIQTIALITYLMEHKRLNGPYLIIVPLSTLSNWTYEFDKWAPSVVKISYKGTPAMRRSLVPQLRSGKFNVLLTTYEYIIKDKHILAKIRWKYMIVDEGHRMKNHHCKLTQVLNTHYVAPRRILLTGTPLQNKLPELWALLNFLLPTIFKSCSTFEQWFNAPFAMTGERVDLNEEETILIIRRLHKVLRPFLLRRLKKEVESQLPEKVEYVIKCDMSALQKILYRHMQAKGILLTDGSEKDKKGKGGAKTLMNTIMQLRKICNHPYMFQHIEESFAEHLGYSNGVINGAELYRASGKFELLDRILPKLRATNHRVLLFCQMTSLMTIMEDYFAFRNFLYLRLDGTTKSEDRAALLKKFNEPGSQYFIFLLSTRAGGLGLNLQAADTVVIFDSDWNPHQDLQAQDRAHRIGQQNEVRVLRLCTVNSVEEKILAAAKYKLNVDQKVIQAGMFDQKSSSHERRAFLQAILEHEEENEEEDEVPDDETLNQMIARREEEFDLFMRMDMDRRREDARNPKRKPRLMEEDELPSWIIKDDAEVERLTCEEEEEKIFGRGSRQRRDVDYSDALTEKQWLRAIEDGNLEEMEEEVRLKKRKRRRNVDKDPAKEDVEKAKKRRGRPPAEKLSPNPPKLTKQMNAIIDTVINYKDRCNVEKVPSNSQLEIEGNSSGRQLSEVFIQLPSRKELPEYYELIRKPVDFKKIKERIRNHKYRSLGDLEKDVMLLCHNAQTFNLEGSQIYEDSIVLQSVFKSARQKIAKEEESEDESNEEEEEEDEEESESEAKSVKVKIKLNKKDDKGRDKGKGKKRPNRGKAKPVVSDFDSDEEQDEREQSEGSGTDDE
Sequence of Beta-lactamase (Salmonella choleraesuis (strain SC-B67), UniProt Q5J463) (Q5J463 whole entry): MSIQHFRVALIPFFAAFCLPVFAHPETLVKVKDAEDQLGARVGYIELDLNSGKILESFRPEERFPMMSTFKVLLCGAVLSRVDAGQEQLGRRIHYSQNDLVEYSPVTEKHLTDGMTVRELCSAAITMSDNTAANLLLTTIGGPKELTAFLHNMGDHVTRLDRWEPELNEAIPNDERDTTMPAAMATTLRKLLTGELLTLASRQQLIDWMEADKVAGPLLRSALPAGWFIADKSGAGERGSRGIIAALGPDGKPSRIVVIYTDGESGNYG

For `CCCCn1c(S)nnc1-c1sccc1C`, the AC50 (Trypsin) was 10 µM (active), the IC50 (Beta-lactamase [1]) was > 59.6 µM (inactive) and the IC50 (Beta-lactamase [2]) was > 59.6 µM (inactive). For the same compound, the IC50 (Beta-lactamase [3]) was > 59.6 µM (inactive).
For `COc1ccc(-c2ccc3c(c2)[C@@H]2[C@@H](CCN2C(=O)C2CCOCC2)[C@@H](CO)N3C)cc1`, the AC50 (A549) was 27.8 µM (active).
`CN(C)c1ccc2c(c1)[C@@H]1C[C@H](CC(=O)NCc3ccc(Oc4ccccc4)cc3)O[C@@H](CO)[C@@H]1O2` gave an AbsAC35 [4] of 41.71 µM.
With `CCOc1ccccc1NC(=O)c1cccc(NC(=O)c2cccc(C)c2)c1` the IC50 [5] was 0.017 µM (active) and the IC50 [6] was 0.29 µM (active).
For `COc1nc(NC(=N)N)nc2ccc(C)cc12`, the EC50 [7] was > 3.38 µM (active), the EC50 [8] was 5.31 µM (active) and the EC50 [9] was > 91.2 µM (inactive). The AC50 [10] was 9.39 µM (active).
